In patent US8697742B2, “BCRP/ABCG2 inhibitor” (Kabushiki Kaisha Yakult Honsha, priority 2005, dated 2014):
In brackets after ≈: the same amount, converted by molar mass. Structures can show the parent of a compound that is named as a salt. Where two headings read alike, the source gives them in different places.

Columns and labels:
K562/MDR cells = experiment: Effect on paclitaxel (multidrug) resistance of human MDR1 gene-transduced K562 cells; format: cell-based; details: concentration for 50% reduction of relative paclitaxel resistance value, K562/MDR vs K562, 72 hours; for EC50: Homo sapiens, read-out: Effect of overcoming resistance EC50
Excerpt: After completion of culturing, the number of viable cells was counted by use of TetraColor ONE according to the manufacture's instruction manual.

A549/SN-38-4 cells = experiment: Effect of overcoming SN-38 resistance of BCRP-expressing A549/SN-38-4 cells; format: cell-based, human; details: 48 hours culture with SN-38; for EC50: Homo sapiens, A549, 48 h
Procedure: The human lung cancer A549 cells or the A549/SN-38-4 cells were suspended in a Ham's F-12 medium containing 10% FBS, 100 U/mL of penicillin, and 100 μg/mL of streptomycin (10% FBS/Ham's F-12), and the resultant suspension was inoculated into a 96-well microplate (2×10^3 cells/50 μL/well), followed by culturing at 5% CO2 and 37° C. overnight. […] After completion of culturing, the number of viable cells was counted by use of a viable cell counting reagent [TetraColor ONE (trademark), product of Seikagaku Corporation] according to the attached instruction manual. […] The greater the relative resistance value, the higher the level of acquired resistance.

[1] = concentration for 50% reduction of relative SN-38 resistance value (IC50 A549/SN-38-4 / IC50 A549), read-out: Effect of overcoming resistance EC50
[2] = concentration for 50% reduction of relative SN-38 resistance value (IC50 A549/SN-38-4 / IC50 A549)

EC50 (K562/MDR cells) | EC50 (A549/SN-38-4 cells; [1]) | Compound | further results
> 5 µg/mL | 0.032 µg/mL (≈ 0.112 µM) | COc1ccc(/C(C#N)=C/c2ccc(N)s2)cc1OC [Compound 3, (Z)-3-(5-amino-thiophen-2-yl)-2-(3,4-dimethoxy-phenyl)-acrylonitrile] | –
> 5 µg/mL | – | COc1ccc(/C(C#N)=C/c2ccc(N3CCCCC3)s2)cc1OC [Compound 4, (Z)-2-(3,4-dimethoxy-phenyl)-3-(5-piperidin-1-yl-thiophen-2-yl)-acrylonitrile] | Effect of overcoming resistance EC50 (A549/SN-38-4 cells; [2]): 0.012 µg/mL
> 5 µg/mL | 0.013 µg/mL (≈ 0.0365 µM) | COc1ccc(/C(C#N)=C/c2ccc(N3CCOCC3)s2)cc1OC [Compound 5, (Z)-2-(3,4-dimethoxy-phenyl)-3-(5-morpholin-4-yl-thiophen-2-yl)-acrylonitrile] | –
> 5 µg/mL | – | COc1ccc(/C(C#N)=C/c2ccc(N3CCC(OP(=O)([O-])[O-])CC3)s2)cc1OC.[Na+].[Na+] [Compound 17, mono-(1-{5-[(Z)-2-cyano-2-(3,4-dimethoxy-phenyl)-vinyl]-thiophen-2-yl}-piperidin-4-yl)phosphate sodium salt] | –
– | – | COc1ccc(/C(C#N)=C/c2ccc(N3CCC(OC(=O)CCC(=O)O)CC3)s2)cc1OC [Compound 18, mono-(1-{5-[(Z)-2-cyano-2-(3,4-dimethoxy-phenyl)-vinyl]-thiophen-2-yl}-piperidin-4-yl)succinate] | Effect of overcoming resistance EC50 (K562/MDR cells): >5 µg/mL
> 5 µg/mL | 0.014 µg/mL (≈ 0.0466 µM) | COc1ccc(/C(C#N)=C/c2ccc([N+](=O)[O-])o2)cc1OC [Compound 19, (Z)-2-(3,4-dimethoxy-phenyl)-3-(5-nitro-furan-2-yl)-acrylonitrile] | –
– | – | COc1ccc(/C(C#N)=C/c2ccc(CO)o2)cc1OC [Compound 20, (Z)-2-(3,4-dimethoxy-phenyl)-3-(5-hydroxy-methyl-furan-2-yl)-acrylonitrile] | Effect of overcoming resistance EC50 (K562/MDR cells): >5 µg/mL; Effect of overcoming resistance EC50 (A549/SN-38-4 cells; [2]): 0.49 µg/mL
> 5 µg/mL | 0.013 µg/mL (≈ 0.0382 µM) | COc1ccc(/C(C#N)=C/c2ccc(N3CCOCC3)o2)cc1OC [Compound 25, (Z)-2-(3,4-dimethoxy-phenyl)-3-(5-morpholin-4-yl-furan-2-yl)-acrylonitrile] | –
> 5 µg/mL | 0.075 µg/mL (≈ 0.212 µM) | COc1ccc(/C(C#N)=C/c2ccc(N3CCC(O)CC3)o2)cc1OC [Compound 26, (Z)-2-(3,4-dimethoxy-phenyl)-3-[5-(4-hydroxy-piperidin-1-yl)-furan-2-yl]-acrylonitrile] | –
– | – | COc1ccc(/C(C#N)=C/c2ccc(N3CCC(OP(=O)(O)O)CC3)o2)cc1OC [Compound 52, mono-(1-{5-[(Z)-2-cyano-2-(3,4-dimethoxy-phenyl)-vinyl]-furan-2-yl}-piperidin-4-yl)phosphate] | Effect of overcoming resistance EC50 (K562/MDR cells): >5 µg/mL
> 5 µg/mL | – | COc1ccc(/C(C#N)=C/c2ccc(N3CCC(OP(=O)([O-])[O-])CC3)o2)cc1OC.[Na+].[Na+] [Compound 53, mono-(1-{5-[(Z)-2-cyano-2-(3,4-dimethoxy-phenyl)-vinyl]-furan-2-yl}-piperidin-4-yl)phosphate sodium salt] | –
> 5 µg/mL | – | COc1ccc(/C=C(\C#N)c2cccs2)cc1OC [Compound 55, (E)-3-(3,4-dimethoxy-phenyl)-2-thiophen-2-yl-acrylonitrile] | –
– | 0.23 µg/mL (≈ 0.894 µM) | N#C/C(=C\c1ccnc2ccccc12)c1ccccn1 [Compound 85, (Z)-2-pyridin-2-yl-3-quinolin-4-yl-acrylonitrile] | –
– | 0.12 µg/mL (≈ 0.466 µM) | N#C/C(=C\c1ccnc2ccccc12)c1cccnc1 [Compound 86, (Z)-2-pyridin-3-yl-3-quinolin-4-yl-acrylonitrile] | –
– | 0.046 µg/mL (≈ 0.175 µM) | N#C/C(=C\c1ccnc2ccccc12)c1cccs1 [Compound 87, (E)-3-quinolin-4-yl-2-thiophen-2-yl-acrylonitrile] | –
– | 0.07 µg/mL (≈ 0.267 µM) | N#C/C(=C\c1ccnc2ccccc12)c1ccsc1 [Compound 88, (Z)-3-quinolin-4-yl-2-thiophen-3-yl-acrylonitrile] | –
– | 0.46 µg/mL (≈ 1.44 µM) | N#C/C(=C\c1csc2ccccc12)c1nc2ccccc2s1 [Compound 90, (E)-3-benzo[b]thiophen-3-yl-2-benzothiazol-2-yl-acrylonitrile] | –
– | 0.52 µg/mL (≈ 1.82 µM) | N#C/C(=C\c1cc2ccccc2o1)c1coc2ccccc12 [Compound 91, (Z)-3-benzofuran-2-yl-2-benzofuran-3-yl-acrylonitrile] | –
– | 0.041 µg/mL (≈ 0.13 µM) | Cn1cc(/C=C(\C#N)c2nc3ccccc3s2)c2ccccc21 [Compound 92, (E)-2-benzothiazol-2-yl-3-(1-methyl-1H-indol-3-yl)-acrylonitrile] | –
– | 0.28 µg/mL (≈ 0.7 µM) | COc1ccc(/C(C#N)=C/c2c3ccccc3c(Cl)c3ccccc23)cc1OC [Compound 93, (Z)-3-(10-chloro-anthracen-9-yl)-2-(3,4-dimethoxy-phenyl)-acrylonitrile] | –
– | – | COc1ccc(/C(C#N)=C/c2cc3ccccc3c3ccccc23)cc1OC [Compound 95, (Z)-2-(3,4-dimethoxy-phenyl)-3-phenanthren-9-yl-acrylonitrile] | EC50 (A549/SN-38-4 cells; read-out: Effect of overcoming resistance EC50, concentration for 50% reduction of relative SN-38 resistance value (IC50 A549/SN-38-4 / IC50 A549)): 0.008 µg/mL (≈ 0.0219 µM)
– | 0.12 µg/mL | CCN(CC)CC(=O)OC1CCN(c2ccc(/C=C(\C#N)c3ccc(OC)c(OC)c3)s2)CC1.Cc1ccc(S(=O)(=O)O)cc1 [Compound 96, 1-[5-[(Z)-2-cyano-2-(3,4-dimethoxy-phenyl)-vinyl]-thiophen-2-yl]-piperidin-4-yl diethylamino-acetate p-toluenesulfonate] | –
– | 0.078 µg/mL (≈ 0.166 µM) | CCN(CC)C(=O)OC1CCN(c2ccc(/C=C(\C#N)c3ccc(OC)c(OC)c3)s2)CC1 [Compound 97, 1-[5-[(Z)-2-cyano-2-(3,4-dimethoxy-phenyl)-vinyl]-thiophen-2-yl]-piperidin-4-yl diethyl-carbamate] | –
– | 0.1 µg/mL | CCN(CC)CCN(C)C(=O)CCC(=O)OC1CCN(c2ccc(/C=C(\C#N)c3ccc(OC)c(OC)c3)s2)CC1 [Compound 98, 1-[5-[(Z)-2-cyano-2-(3,4-dimethoxy-phenyl)-vinyl]-thiophen-2-yl]-piperidin-4-yl N-(2-diethylamino-ethyl)-N-methyl-succinamate hydrochloride] | –
– | 0.063 µg/mL (≈ 0.102 µM) | CCN(CC)c1ccc(NC(=O)CCC(=O)OC2CCN(c3ccc(/C=C(\C#N)c4ccc(OC)c(OC)c4)s3)CC2)cc1 [Compound 99, 1-[5-[(Z)-2-cyano-2-(3,4-dimethoxy-phenyl)-vinyl]-thiophen-2-yl]-piperidin-4-yl N-(4-diethylamino-phenyl)-succinamate] | –
– | – | COc1ccc(/C(C#N)=C/c2ccc(N3CCN(CCO)CC3)s2)cc1OC.COc1ccc(/C(C#N)=C/c2ccc(N3CCN(CCO)CC3)s2)cc1OC.O=S(=O)(O)O [Compound 100, (Z)-2-(3,4-dimethoxy-phenyl)-3-{5-[4-(2-hydroxy-ethyl)-piperazin-1-yl]-thiophen-2-yl}-acrylonitrile ½ sulfate] | Effect of overcoming resistance EC50 (A549/SN-38-4 cells; [2]): 0.012 µg/mL
– | – | COc1ccc(/C(C#N)=C/c2ccc(N3CCN(CCO)CC3)s2)cc1OC [Compound 102, (Z)-2-(3,4-dimethoxy-phenyl)-3-{5-[4-(2-hydroxy-ethyl)-piperazin-1-yl]-thiophen-2-yl}-acrylonitrile nitrate] | Effect of overcoming resistance EC50 (A549/SN-38-4 cells; concentration for 50% reduction of relative SN-38 resistance value (IC50 A549/SN-38-4 / IC50 A549), nitrate): 0.017 µg/mL
– | – | (E)-2-benzothiazol-1-yl-3-(3,4-dimethoxy-phenyl)-acrylonitrile [Compound 71] | Effect of overcoming resistance EC50 (A549/SN-38-4 cells; [2]): 0.013 µg/mL

Compound | EC50 (K562/MDR cells) | EC50 (A549/SN-38-4 cells; [1]) | further results
COc1ccc(/C(C#N)=C/c2ccc(N3CCN(CCO)CC3)s2)cc1OC.O=S(=O)(O)O [Compound 101, (Z)-2-(3,4-dimethoxy-phenyl)-3-{5-[4-(2-hydroxy-ethyl)-piperazin-1-yl]-thiophen-2-yl}-acrylonitrile sulfate] | – | 0.013 µg/mL | –
